Numbers after ± are expanded uncertainties.
Assay: activity coefficient (dimensionless); of the first substance listed, at infinite dilution; xn = mol fraction of the nth substance listed
Details: 101 kPa, Liquid, Chromatography, x1 = 0

| Compound | activity coefficient (328.15 K) | activity coefficient (338.15 K) | activity coefficient (348.15 K) | activity coefficient (358.15 K) | activity coefficient (368.15 K) | activity coefficient (308.15 K) | activity coefficient (318.15 K) |
| --- | --- | --- | --- | --- | --- | --- | --- |
| Cc1ccccc1C [1,2-dimethylbenzene] + CCCCCC[n+]1ccc2ccccc2c1.N#C[S-] | 2.35 ± 0.16 | 2.37 ± 0.16 | 2.41 ± 0.16 | 2.43 ± 0.17 | 2.45 ± 0.17 |  |  |
| Cc1cccc(C)c1 [1,3-dimethylbenzene] + CCCCCC[n+]1ccc2ccccc2c1.N#C[S-] | 2.9 ± 0.2 | 2.93 ± 0.2 | 2.96 ± 0.2 | 2.98 ± 0.2 | 3.01 ± 0.2 |  |  |
| Cc1ccc(C)cc1 [1,4-dimethylbenzene] + CCCCCC[n+]1ccc2ccccc2c1.N#C[S-] | 2.82 ± 0.19 | 2.85 ± 0.19 | 2.88 ± 0.2 | 2.9 ± 0.2 | 2.94 ± 0.2 |  |  |
| C1COCCO1 [1,4-dioxane] + CCCCCC[n+]1ccc2ccccc2c1.N#C[S-] | 1.23 ± 0.08 | 1.25 ± 0.08 | 1.27 ± 0.08 | 1.28 ± 0.08 | 1.31 ± 0.09 |  |  |
| C=CCCCCCCCC [1-decene] + CCCCCC[n+]1ccc2ccccc2c1.N#C[S-] | 46.3 ± 3.2 | 44.2 ± 3 | 42.5 ± 2.9 | 40.5 ± 2.8 | 39.1 ± 2.7 | 50.6 ± 3.5 | 48.1 ± 3.3 |
| C=CCCCCC [1-heptene] + CCCCCC[n+]1ccc2ccccc2c1.N#C[S-] | 20.9 ± 1.4 | 19.5 ± 1.3 | 18.7 ± 1.3 | 17.7 ± 1.2 | 16.9 ± 1.2 | 23.5 ± 1.6 | 22 ± 1.5 |
| C#CCCCCC [1-heptyne] + CCCCCC[n+]1ccc2ccccc2c1.N#C[S-] | 4.93 ± 0.34 | 5.02 ± 0.34 | 5.09 ± 0.35 | 5.16 ± 0.35 | 5.21 ± 0.36 | 4.77 ± 0.33 | 4.85 ± 0.33 |
| C#CCCCC [1-hexyne] + CCCCCC[n+]1ccc2ccccc2c1.N#C[S-] | 3.71 ± 0.25 | 3.78 ± 0.26 | 3.83 ± 0.26 | 3.9 ± 0.27 | 3.96 ± 0.27 | 3.57 ± 0.24 | 3.64 ± 0.25 |
| CCC[N+](=O)[O-] [1-nitropropane] + CCCCCC[n+]1ccc2ccccc2c1.N#C[S-] | 1.39 ± 0.09 | 1.38 ± 0.09 | 1.37 ± 0.09 | 1.37 ± 0.09 | 1.35 ± 0.09 |  |  |
| C#CCCCCCC [1-octyne] + CCCCCC[n+]1ccc2ccccc2c1.N#C[S-] | 6.52 ± 0.44 | 6.64 ± 0.45 | 6.71 ± 0.46 | 6.8 ± 0.46 | 6.87 ± 0.47 | 6.31 ± 0.43 | 6.43 ± 0.44 |
| C=CCCC [1-pentene] + CCCCCC[n+]1ccc2ccccc2c1.N#C[S-] | 14.5 ± 1 | 12.9 ± 0.9 | 11.7 ± 0.8 | 10.7 ± 0.7 | 9.6 ± 0.7 | 18.4 ± 1.3 | 16.2 ± 1.1 |
| C#CCCC [1-pentyne] + CCCCCC[n+]1ccc2ccccc2c1.N#C[S-] | 2.91 ± 0.2 | 2.97 ± 0.2 | 3.03 ± 0.21 | 3.07 ± 0.21 | 3.14 ± 0.21 | 2.79 ± 0.19 | 2.85 ± 0.19 |
| CC(C)CC(C)(C)C [2,2,4-trimethylpentane] + CCCCCC[n+]1ccc2ccccc2c1.N#C[S-] | 68.6 ± 4.7 | 57.7 ± 4 | 50.8 ± 3.5 | 44.5 ± 3 | 39.1 ± 2.7 | 96.5 ± 6.6 | 79.7 ± 5.5 |
| CCC(C)(C)C [2,2-dimethylbutane] + CCCCCC[n+]1ccc2ccccc2c1.N#C[S-] | 57.2 ± 3.9 | 45.5 ± 3.1 | 37.9 ± 2.6 | 31.2 ± 2.1 | 25.6 ± 1.8 | 91.5 ± 6.3 | 72.2 ± 4.9 |
| CCOC(C)(C)C [2-ethoxy-2-methylpropane] + CCCCCC[n+]1ccc2ccccc2c1.N#C[S-] | 17.2 ± 1.2 | 15.7 ± 1.1 | 14.7 ± 1 | 13.8 ± 0.9 | 12.8 ± 0.9 | 20.6 ± 1.4 | 18.6 ± 1.3 |
| CCCCC(C)=O [2-hexanone] + CCCCCC[n+]1ccc2ccccc2c1.N#C[S-] | 2.62 ± 0.18 | 2.63 ± 0.18 | 2.64 ± 0.18 | 2.65 ± 0.18 | 2.65 ± 0.18 |  |  |
| CCC(C)(C)OC [2-methoxy-2-methylbutane] + CCCCCC[n+]1ccc2ccccc2c1.N#C[S-] | 9.01 ± 0.61 | 8.58 ± 0.59 | 8.36 ± 0.57 | 8.13 ± 0.55 | 7.85 ± 0.54 | 9.8 ± 0.67 | 9.34 ± 0.64 |

| Compound | activity coefficient (328.15 K) | activity coefficient (338.15 K) | activity coefficient (348.15 K) | activity coefficient (358.15 K) | activity coefficient (368.15 K) | activity coefficient (308.15 K) | activity coefficient (318.15 K) |
| --- | --- | --- | --- | --- | --- | --- | --- |
| COC(C)(C)C [2-methoxy-2-methylpropane] + CCCCCC[n+]1ccc2ccccc2c1.N#C[S-] | 7.65 ± 0.52 | 7.18 ± 0.49 | 6.99 ± 0.48 | 6.61 ± 0.45 | 6.28 ± 0.43 | 8.61 ± 0.59 | 8.13 ± 0.55 |
| CCCC(=O)CC [3-hexanone] + CCCCCC[n+]1ccc2ccccc2c1.N#C[S-] | 2.86 ± 0.19 | 2.88 ± 0.2 | 2.89 ± 0.2 | 2.9 ± 0.2 | 2.91 ± 0.2 |  |  |
| CCC(C)CC [3-methylpentane] + CCCCCC[n+]1ccc2ccccc2c1.N#C[S-] | 37.8 ± 2.6 | 31.9 ± 2.2 | 27.9 ± 1.9 | 24.7 ± 1.7 | 21.5 ± 1.5 | 52.3 ± 3.6 | 43.4 ± 3 |
| CC(C)=O [acetone] + CCCCCC[n+]1ccc2ccccc2c1.N#C[S-] | 1.33 ± 0.09 | 1.31 ± 0.09 | 1.3 ± 0.08 | 1.3 ± 0.08 | 1.28 ± 0.08 |  |  |
| CC#N [acetonitrile] + CCCCCC[n+]1ccc2ccccc2c1.N#C[S-] | 1.02 ± 0.06 | 1.01 ± 0.06 | 1 ± 0.06 | 0.994 ± 0.062 | 0.982 ± 0.062 |  |  |
| c1ccccc1 [benzene] + CCCCCC[n+]1ccc2ccccc2c1.N#C[S-] | 1.47 ± 0.1 | 1.48 ± 0.1 | 1.48 ± 0.1 | 1.48 ± 0.1 | 1.49 ± 0.1 |  |  |
| CCCCO [butan-1-ol] + CCCCCC[n+]1ccc2ccccc2c1.N#C[S-] | 0.846 ± 0.054 | 0.829 ± 0.053 | 0.812 ± 0.053 | 0.802 ± 0.052 | 0.788 ± 0.051 |  |  |
| C1CCCCCC1 [cycloheptane] + CCCCCC[n+]1ccc2ccccc2c1.N#C[S-] | 14.5 ± 1 | 13.4 ± 0.9 | 12.6 ± 0.9 | 11.9 ± 0.8 | 11.3 ± 0.8 | 17 ± 1.2 | 15.8 ± 1.1 |
| C1CCCCC1 [cyclohexane] + CCCCCC[n+]1ccc2ccccc2c1.N#C[S-] | 13.3 ± 0.9 | 12.4 ± 0.8 | 11.6 ± 0.8 | 10.8 ± 0.7 | 10.2 ± 0.7 | 15.4 ± 1.1 | 14.2 ± 1 |
| C1=CCCCC1 [cyclohexene] + CCCCCC[n+]1ccc2ccccc2c1.N#C[S-] | 6.6 ± 0.45 | 6.2 ± 0.42 | 5.9 ± 0.4 | 5.7 ± 0.39 | 5.5 ± 0.37 | 7.2 ± 0.49 | 6.9 ± 0.47 |
| C1CCCCCCC1 [cyclooctane] + CCCCCC[n+]1ccc2ccccc2c1.N#C[S-] | 16.5 ± 1.1 | 15.4 ± 1.1 | 14.5 ± 1 | 13.7 ± 0.9 | 12.9 ± 0.9 | 18.8 ± 1.3 | 17.5 ± 1.2 |
| C1CCCC1 [cyclopentane] + CCCCCC[n+]1ccc2ccccc2c1.N#C[S-] | 12.3 ± 0.8 | 11.5 ± 0.8 | 10.8 ± 0.7 | 10.2 ± 0.7 | 9.6 ± 0.65 | 14.7 ± 1 | 13.4 ± 0.9 |
| CCCCCCCCCC [decane] + CCCCCC[n+]1ccc2ccccc2c1.N#C[S-] | 90.4 ± 6.2 | 84.1 ± 5.8 | 78.4 ± 5.4 | 73.4 ± 5 | 68.1 ± 4.7 | 105 ± 7 | 96.7 ± 6.6 |
| CCOCC [diethyl ether] + CCCCCC[n+]1ccc2ccccc2c1.N#C[S-] | 6.69 ± 0.46 | 6.34 ± 0.43 | 6.15 ± 0.42 | 5.91 ± 0.4 | 5.66 ± 0.39 | 7.48 ± 0.51 | 7.07 ± 0.48 |
| CC(C)OC(C)C [diisopropyl ether] + CCCCCC[n+]1ccc2ccccc2c1.N#C[S-] | 20.5 ± 1.4 | 17.6 ± 1.2 | 16.5 ± 1.1 | 15.7 ± 1.1 | 14.1 ± 1 | 23.7 ± 1.6 | 21.2 ± 1.4 |
| CCCOCCC [dipropyl ether] + CCCCCC[n+]1ccc2ccccc2c1.N#C[S-] | 14.2 ± 1 | 13.2 ± 0.9 | 12.6 ± 0.9 | 11.9 ± 0.8 | 11.3 ± 0.8 | 15.9 ± 1.1 | 14.9 ± 1 |
| CCO [ethanol] + CCCCCC[n+]1ccc2ccccc2c1.N#C[S-] | 0.6 ± 0.042 | 0.59 ± 0.042 | 0.581 ± 0.041 | 0.574 ± 0.041 | 0.566 ± 0.041 |  |  |
